Reference: PubChem BioAssay (NCI)
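Values below derive from 48-hour exposures of cells grown in 96-well plates, with endpoints linearly interpolated between the two concentrations bracketing the appropriate inhibition level. GI50 marks 50% less growth. TGI: total growth inhibition.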

How the values were obtained:
Assay in all cases: NCI tumour cell line growth inhibition, 48 h
786-0 renal = system: 786-0 renal
A498 renal = system: A498 renal
A549 NSCLC = system: A549 NSCLC
ACHN renal = system: ACHN renal
BT-549 breast = system: BT-549 breast
CAKI-1 renal = system: CAKI-1 renal
CCRF-CEM leukemia = system: CCRF-CEM leukemia
COLO 205 colon = system: COLO 205 colon
DU-145 prostate = system: DU-145 prostate
EKVX NSCLC = system: EKVX NSCLC
HCC-2998 colon = system: HCC-2998 colon
HCT-116 colon = system: HCT-116 colon
HCT-15 colon = system: HCT-15 colon
HL-60(TB) leukemia = system: HL-60(TB) leukemia
HOP-62 NSCLC = system: HOP-62 NSCLC
HOP-92 NSCLC = system: HOP-92 NSCLC
HS 578T breast = system: HS 578T breast
HT29 colon = system: HT29 colon
IGROV1 ovarian = system: IGROV1 ovarian
K-562 leukemia = system: K-562 leukemia
KM12 colon = system: KM12 colon
M14 melanoma = system: M14 melanoma
MALME-3M melanoma = system: MALME-3M melanoma
MCF7 breast = system: MCF7 breast
MDA-MB-231 breast = system: MDA-MB-231 breast
MDA-MB-435 = system: MDA-MB-435
MOLT-4 leukemia = system: MOLT-4 leukemia
NCI-H226 lung = system: NCI-H226 lung
NCI-H23 lung = system: NCI-H23 lung
NCI-H460 lung = system: NCI-H460 lung
NCI-H522 lung = system: NCI-H522 lung
NCI/ADR-RES ovarian = system: NCI/ADR-RES ovarian
OVCAR-3 ovarian = system: OVCAR-3 ovarian
OVCAR-4 ovarian = system: OVCAR-4 ovarian
OVCAR-5 ovarian = system: OVCAR-5 ovarian
OVCAR-8 ovarian = system: OVCAR-8 ovarian
PC-3 prostate = system: PC-3 prostate
RPMI-8226 leukemia = system: RPMI-8226 leukemia
RXF 393 renal = system: RXF 393 renal
SF-268 CNS = system: SF-268 CNS
SF-295 CNS = system: SF-295 CNS
SF-539 CNS = system: SF-539 CNS
SK-MEL-2 melanoma = system: SK-MEL-2 melanoma
SK-MEL-28 melanoma = system: SK-MEL-28 melanoma
SK-MEL-5 melanoma = system: SK-MEL-5 melanoma
SK-OV-3 ovarian = system: SK-OV-3 ovarian
SN12C renal = system: SN12C renal
SNB-19 CNS = system: SNB-19 CNS
SNB-75 CNS = system: SNB-75 CNS
SR leukemia = system: SR leukemia
SW-620 colon = system: SW-620 colon
T-47D breast = system: T-47D breast
TK-10 renal = system: TK-10 renal
U251 CNS = system: U251 CNS
UACC-257 melanoma = system: UACC-257 melanoma
UACC-62 melanoma = system: UACC-62 melanoma
UO-31 renal = system: UO-31 renal

How did the GI50 (786-0 renal) turn out when `NS(=O)(=O)c1ccc(Nc2nc(Nc3ccccc3)nc(-n3nc(-c4ccccc4)cc3-c3ccccc3)n2)cc1` was run?
Its GI50 is 3.09 µM.

And the TGI (786-0 renal)?
Its TGI is 10.6 µM.

And the GI50 (A498 renal)?
Its GI50 is 3.34 µM.

What about the TGI (A498 renal) of the same compound?
Its TGI is 8.08 µM.

And the GI50 (A549 NSCLC)?
Its GI50 is 3.18 µM.

What about the TGI (A549 NSCLC) of the same compound?
Its TGI is 17.9 µM.

What about the GI50 (ACHN renal) of the same compound?
Its GI50 is 2.59 µM.

What about the TGI (ACHN renal) of the same compound?
The TGI was 9.95 µM.

And the GI50 (BT-549 breast)?
The GI50 was 2.24 µM.

And the TGI (BT-549 breast)?
Its TGI is 5.54 µM.

What about the GI50 (CAKI-1 renal) of the same compound?
The GI50 was 2.45 µM.

What about the TGI (CAKI-1 renal) of the same compound?
The TGI was 9.55 µM.

What about the GI50 (CCRF-CEM leukemia) of the same compound?
Its GI50 is 2.94 µM.

What about the TGI (CCRF-CEM leukemia) of the same compound?
Its TGI is greater than 100 µM.

And the GI50 (COLO 205 colon)?
The GI50 was 1.78 µM.

And the TGI (COLO 205 colon)?
Its TGI is 3.27 µM.

What about the GI50 (DU-145 prostate) of the same compound?
The GI50 was 3.16 µM.

And the TGI (DU-145 prostate)?
Its TGI is 13 µM.

What about the GI50 (EKVX NSCLC) of the same compound?
The GI50 was 2.96 µM.

And the TGI (EKVX NSCLC)?
The TGI was 17.4 µM.

And the GI50 (HCC-2998 colon)?
Its GI50 is 2.98 µM.

What about the TGI (HCC-2998 colon) of the same compound?
The TGI was 6.84 µM.

And the GI50 (HCT-116 colon)?
Its GI50 is 1.74 µM.

What about the TGI (HCT-116 colon) of the same compound?
Its TGI is 3.39 µM.

And the GI50 (HCT-15 colon)?
The GI50 was 3.08 µM.

And the TGI (HCT-15 colon)?
The TGI was 11.2 µM.

What about the GI50 (HL-60(TB) leukemia) of the same compound?
Its GI50 is 2.24 µM.

And the TGI (HL-60(TB) leukemia)?
Its TGI is 8.26 µM.

What about the GI50 (HOP-62 NSCLC) of the same compound?
Its GI50 is 3.29 µM.

And the TGI (HOP-62 NSCLC)?
Its TGI is 12.4 µM.

What about the GI50 (HOP-92 NSCLC) of the same compound?
The GI50 was 2.16 µM.

And the TGI (HOP-92 NSCLC)?
The TGI was 6.18 µM.

What about the GI50 (HS 578T breast) of the same compound?
Its GI50 is 4.31 µM.

What about the TGI (HS 578T breast) of the same compound?
The TGI was 62.7 µM.

And the GI50 (HT29 colon)?
Its GI50 is 2.38 µM.

And the TGI (HT29 colon)?
Its TGI is 5.48 µM.

And the GI50 (IGROV1 ovarian)?
The GI50 was 2.72 µM.

And the TGI (IGROV1 ovarian)?
The TGI was 11.4 µM.

And the GI50 (K-562 leukemia)?
The GI50 was 2.62 µM.

What about the TGI (K-562 leukemia) of the same compound?
Its TGI is 10.8 µM.

What about the GI50 (KM12 colon) of the same compound?
Its GI50 is 2.77 µM.

And the TGI (KM12 colon)?
Its TGI is 8.2 µM.

And the GI50 (M14 melanoma)?
The GI50 was 3.22 µM.

What about the TGI (M14 melanoma) of the same compound?
Its TGI is 12.5 µM.

What about the GI50 (MALME-3M melanoma) of the same compound?
Its GI50 is 2.43 µM.

What about the TGI (MALME-3M melanoma) of the same compound?
The TGI was 7.09 µM.

And the GI50 (MCF7 breast)?
The GI50 was 2.27 µM.

And the TGI (MCF7 breast)?
The TGI was 6.61 µM.

What about the GI50 (MDA-MB-231 breast) of the same compound?
Its GI50 is 1.81 µM.

And the TGI (MDA-MB-231 breast)?
The TGI was 3.85 µM.

And the GI50 (MDA-MB-435)?
Its GI50 is 3.32 µM.

What about the TGI (MDA-MB-435) of the same compound?
Its TGI is 12.9 µM.

And the GI50 (MOLT-4 leukemia)?
The GI50 was 1.51 µM.

And the TGI (MOLT-4 leukemia)?
The TGI was 6.47 µM.

And the GI50 (NCI-H226 lung)?
The GI50 was 2.52 µM.

And the TGI (NCI-H226 lung)?
The TGI was 11 µM.

And the GI50 (NCI-H23 lung)?
Its GI50 is 2.84 µM.

And the TGI (NCI-H23 lung)?
Its TGI is 9.12 µM.

And the GI50 (NCI-H460 lung)?
The GI50 was 2.07 µM.

What about the TGI (NCI-H460 lung) of the same compound?
The TGI was 4.66 µM.

What about the GI50 (NCI-H522 lung) of the same compound?
Its GI50 is 2.29 µM.

And the TGI (NCI-H522 lung)?
The TGI was 7.39 µM.

And the GI50 (NCI/ADR-RES ovarian)?
Its GI50 is 2.93 µM.

What about the TGI (NCI/ADR-RES ovarian) of the same compound?
The TGI was 11 µM.

And the GI50 (OVCAR-3 ovarian)?
The GI50 was 2.24 µM.

And the TGI (OVCAR-3 ovarian)?
The TGI was 4.97 µM.

What about the GI50 (OVCAR-4 ovarian) of the same compound?
Its GI50 is 2.77 µM.

What about the TGI (OVCAR-4 ovarian) of the same compound?
The TGI was 9.32 µM.

What about the GI50 (OVCAR-5 ovarian) of the same compound?
The GI50 was 3.34 µM.

What about the TGI (OVCAR-5 ovarian) of the same compound?
Its TGI is 14.3 µM.

And the GI50 (OVCAR-8 ovarian)?
The GI50 was 3.22 µM.

What about the TGI (OVCAR-8 ovarian) of the same compound?
Its TGI is 16 µM.

What about the GI50 (PC-3 prostate) of the same compound?
The GI50 was 2.37 µM.

And the TGI (PC-3 prostate)?
Its TGI is 7.89 µM.

What about the GI50 (RPMI-8226 leukemia) of the same compound?
Its GI50 is 2.49 µM.

What about the TGI (RPMI-8226 leukemia) of the same compound?
Its TGI is 8.69 µM.

What about the GI50 (RXF 393 renal) of the same compound?
Its GI50 is 1.99 µM.

What about the TGI (RXF 393 renal) of the same compound?
The TGI was 5.23 µM.

What about the GI50 (SF-268 CNS) of the same compound?
Its GI50 is 3.97 µM.

What about the TGI (SF-268 CNS) of the same compound?
The TGI was greater than 100 µM.

What about the GI50 (SF-295 CNS) of the same compound?
The GI50 was 3.02 µM.

What about the TGI (SF-295 CNS) of the same compound?
The TGI was 10.5 µM.

What about the GI50 (SF-539 CNS) of the same compound?
Its GI50 is 2.66 µM.

And the TGI (SF-539 CNS)?
Its TGI is 10.3 µM.

What about the GI50 (SK-MEL-2 melanoma) of the same compound?
Its GI50 is 2.39 µM.

And the TGI (SK-MEL-2 melanoma)?
Its TGI is 6.95 µM.

What about the GI50 (SK-MEL-28 melanoma) of the same compound?
The GI50 was 3.87 µM.

What about the TGI (SK-MEL-28 melanoma) of the same compound?
The TGI was 16.9 µM.

What about the GI50 (SK-MEL-5 melanoma) of the same compound?
The GI50 was 2.33 µM.

And the TGI (SK-MEL-5 melanoma)?
The TGI was 5.54 µM.

And the GI50 (SK-OV-3 ovarian)?
Its GI50 is 5.37 µM.

And the TGI (SK-OV-3 ovarian)?
The TGI was greater than 100 µM.

And the GI50 (SN12C renal)?
Its GI50 is 1.47 µM.

What about the TGI (SN12C renal) of the same compound?
Its TGI is 2.88 µM.

And the GI50 (SNB-19 CNS)?
The GI50 was 3.43 µM.

What about the TGI (SNB-19 CNS) of the same compound?
Its TGI is 20.9 µM.

And the GI50 (SNB-75 CNS)?
Its GI50 is 4.61 µM.

What about the TGI (SNB-75 CNS) of the same compound?
The TGI was greater than 100 µM.

And the GI50 (SR leukemia)?
The GI50 was 1.94 µM.

What about the TGI (SR leukemia) of the same compound?
Its TGI is 5.94 µM.

And the GI50 (SW-620 colon)?
The GI50 was 3.52 µM.

What about the TGI (SW-620 colon) of the same compound?
Its TGI is 32.1 µM.

And the GI50 (T-47D breast)?
The GI50 was 2.96 µM.

What about the TGI (T-47D breast) of the same compound?
Its TGI is 13.2 µM.

And the GI50 (TK-10 renal)?
Its GI50 is 3.87 µM.

What about the TGI (TK-10 renal) of the same compound?
The TGI was 8.93 µM.

What about the GI50 (U251 CNS) of the same compound?
The GI50 was 2.91 µM.

What about the TGI (U251 CNS) of the same compound?
Its TGI is 10.3 µM.

And the GI50 (UACC-257 melanoma)?
The GI50 was 3.26 µM.

What about the TGI (UACC-257 melanoma) of the same compound?
The TGI was 23.3 µM.

What about the GI50 (UACC-62 melanoma) of the same compound?
Its GI50 is 1.81 µM.

What about the TGI (UACC-62 melanoma) of the same compound?
The TGI was 3.76 µM.

And the GI50 (UO-31 renal)?
Its GI50 is 2.38 µM.

What about the TGI (UO-31 renal) of the same compound?
The TGI was 10 µM.
